Experimental findings from patent US11999727B2 (Tango Therapeutics, Inc., priority 2020, dated 2024) are described below.

Test [1] has as its target T1, PRMT5 (Homo sapiens, UniProt O14744).
T1 construct: purchased Viva (custom protein)
Kind of test: PRMT5 biochemical IC50 assay with SAM as cofactor. The conditions noted are these: PRMT5, SAM as cofactor; read-out: SAM IC50.

The test system of test [2] is HAP1 MTAP-deleted cell line. Description: Viability assay, MTAP-deleted cell line. The conditions noted are these: Homo sapiens, read-out: HAP1 MTAP deleted viability. The class given is cell-based. The text has this: Table 1 additionally indicates IC50 values in a viability assay for the MTAP-deleted cell line (column 10), indicating the effect of treatment with compound on cell survival.

Test [3] has as its system HAP1 MTAP-intact cell line. Kind of test: SDMA in-cell western assay, HAP1 MTAP-intact. The conditions noted are these: Homo sapiens, HAP1, SDMA in-cell western, HAP1 MTAP-intact; read-out: MTAP HAP1 intact IC50. The class given is cell-based. Put shortly: (§1)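 IC50 values come from SDMA signal quantified by in-cell western in two HAP1 lines, one with native MTAP levels and one lacking MTAP.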

In test [4] the test system is HAP1 MTAP-deleted cell line. Description: SDMA in-cell western assay, HAP1 MTAP-deleted. The conditions noted are these: for IC50: Homo sapiens, HAP1, SDMA in-cell western, HAP1 MTAP-deleted; for MTAP intact/deleted ratio: SDMA in-cell western. The class given is cell-based. The procedure, abridged:
as §1

The target in test [5] is T1, PRMT5. Kind of test: PRMT5 biochemical IC50 assay with no cofactor. The settings on record: PRMT5, no cofactor. The source says:
Table 1 indicates IC50 values (μM) against PRMT5 for exemplary compounds in the presence of SAM as cofactor, with no cofactor, and with MTA as cofactor, respectively (columns 4-6). […] Ki values can be calculated from the IC50 values as described in the Examples section. As detailed in the Examples section, for the assay performed in the presence of SAM, IC50=Ki×1.5 (Ki=IC50/1.5).

The target of test [6] is T1, PRMT5. Kind of test: PRMT5 biochemical IC50 assay with MTA as cofactor. The conditions noted are these: PRMT5, MTA as cofactor; read-out: MTA IC50.
Where [7] appears, read: HAP1, viability, HAP1 MTAP-deleted cell line.
[8] abbreviates: read-out: HAP 1 MTAP deleted IC50.
Where [9] appears, read: IC50 ratio HAP1 MTAP-intact / HAP1 MTAP-deleted.
The mark [10] stands for this setting: read-out: No Cofactor/ rel IC50.
Setting [11] is: HAP1, viability IC50, MTAP-deleted cell line.
[12] abbreviates: HAP1, viability assay, MTAP-deleted cell line.
Where [13] appears, read: read-out: HAP1 MTAP deleted IC50.
The mark [14] stands for this setting: IC50 ratio HAP1 MTAP-intact vs HAP1 MTAP-deleted.

T1 sequence (O14744 whole entry): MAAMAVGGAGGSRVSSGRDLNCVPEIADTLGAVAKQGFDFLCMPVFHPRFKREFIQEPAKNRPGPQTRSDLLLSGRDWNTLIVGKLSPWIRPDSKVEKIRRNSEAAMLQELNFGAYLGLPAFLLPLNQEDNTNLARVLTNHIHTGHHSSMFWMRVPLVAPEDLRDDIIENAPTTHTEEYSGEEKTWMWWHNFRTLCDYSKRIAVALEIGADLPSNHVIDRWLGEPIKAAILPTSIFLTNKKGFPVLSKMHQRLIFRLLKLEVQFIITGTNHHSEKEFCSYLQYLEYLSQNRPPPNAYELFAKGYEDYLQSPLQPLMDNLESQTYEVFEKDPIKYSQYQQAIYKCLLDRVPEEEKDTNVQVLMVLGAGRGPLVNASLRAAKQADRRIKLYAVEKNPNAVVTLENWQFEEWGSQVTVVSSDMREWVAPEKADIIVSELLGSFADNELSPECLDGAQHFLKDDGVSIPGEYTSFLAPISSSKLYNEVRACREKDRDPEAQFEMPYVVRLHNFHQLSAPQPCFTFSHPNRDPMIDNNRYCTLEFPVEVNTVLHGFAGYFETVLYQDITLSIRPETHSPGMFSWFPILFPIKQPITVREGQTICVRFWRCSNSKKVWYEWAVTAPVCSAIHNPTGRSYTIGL
T1 sequence (Q9BQA1 whole entry partner): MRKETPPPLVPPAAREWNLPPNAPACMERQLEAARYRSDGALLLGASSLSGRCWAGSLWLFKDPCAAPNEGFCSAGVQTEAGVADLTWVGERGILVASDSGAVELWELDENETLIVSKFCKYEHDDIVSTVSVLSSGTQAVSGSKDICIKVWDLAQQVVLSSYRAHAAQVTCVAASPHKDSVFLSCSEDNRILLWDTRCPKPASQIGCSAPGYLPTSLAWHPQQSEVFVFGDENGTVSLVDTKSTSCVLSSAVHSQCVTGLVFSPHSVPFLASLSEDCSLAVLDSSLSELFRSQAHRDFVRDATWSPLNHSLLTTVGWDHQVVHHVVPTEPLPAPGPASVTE

Take `C[C@H]1CCC(c2ccc3sc(C4CCOCC4)nc3c2)N(C(=O)C(=O)Nc2cnc(N)c(C3CC3)c2)C1` (single isomer, unassigned) [Compound 1258]: the IC50 was 50 to 500 nM in test [1]; less than 1000 nM in test [2] (setting [7]); 100 to 1000 nM in test [3]; less than 100 nM in test [4] (setting [8]); less than 50 nM in test [5] (setting [10]); less than 50 nM in test [6]. The “MTAP intact/deleted ratio” value in test [4] (setting [9]) is given as “A (an IC50 ratio greater than or equal to 10 fold)”.

Consider `CC(=O)N[C@H]1C[C@H]([C@H]2CC[C@@H](C)CN2C(=O)C(=O)Nc2cnc(N)c(C)c2)C1` (single isomer, unassigned) [Compound 564], for which the IC50 was 50 to 500 nM in test [1]; greater than 10000 nM in test [2] (setting [11]); greater than 1000 nM in test [3]; greater than 1000 nM in test [4] (setting [8]); greater than 500 nM in test [5] (read-out: No Cofactor/rel IC50); 50 to 500 nM in test [6]. Moreover, the MTAP intact/deleted ratio entry in test [4] (setting [9]) is on record as “B (an IC50 ratio greater than or equal to 3 fold but lower than 10 fold)”.

As to `Cc1cc(NC(=O)C(=O)N2C[C@@H](C)CC[C@@H]2c2ccc3sccc3c2)cnc1N` (single isomer, unassigned) [Compound 634], the IC50 was less than 50 nM in test [1]; less than 1000 nM in test [2] (setting [11]); 100 to 1000 nM in test [3]; less than 100 nM in test [4] (setting [8]); less than 50 nM in test [5] (read-out: No Cofactor/rel IC50); less than 50 nM in test [6]. The MTAP intact/deleted ratio result in test [4] (setting [9]) is listed as “A (an IC50 ratio greater than or equal to 10 fold)”.

Take `Cc1cc(NC(=O)C(=O)N2C[C@H](C)CC[C@H]2c2cccc3c2CCN3)cnc1N` (single isomer, unassigned) [Compound 962]: the IC50 was 50 to 500 nM in test [1]; 1000 to 10000 nM in test [2] (setting [12]); greater than 1000 nM in test [3]; 100 to 1000 nM in test [4] (setting [8]); 50 to 500 nM in test [5] (read-out: No Cofactor/rel IC50); less than 50 nM in test [6]. For the same molecule, the MTAP intact/deleted ratio entry in test [4] (setting [9]) is recorded as “A (an IC50 ratio greater than or equal to 10 fold)”.

In the case of `Cc1cc(NC(=O)C(=O)N2C[C@H](C)CC[C@H]2c2cccc3scnc23)cnc1N` (single isomer, unassigned) [Compound 960], the IC50 in test [1] is 50 to 500 nM; in test [2] (setting [12]), 1000 to 10000 nM; in test [3] it was greater than 1000 nM; in test [4] (setting [8]) it was 100 to 1000 nM; in test [5] (read-out: No Cofactor/rel IC50), 50 to 500 nM; in test [6] it was less than 50 nM. Moreover, the MTAP intact/deleted ratio result in test [4] (setting [9]) is “A (an IC50 ratio greater than or equal to 10 fold)”.

`CCc1cc(NC(=O)C(=O)N2C[C@@H](C)CC[C@@H]2c2ccc3sc(CCCN(C)C)nc3c2)cnc1N` [Compound 1262, N-(6-amino-5-ethylpyridin-3-yl)-2-((2R,5S)-2-(2-(3-(dimethylamino)propyl)benzo[d]thiazol-5-yl)-5-methylpiperidin-1-yl)-2-oxoacetamide]: the IC50 in test [1] was less than 50 nM; in test [2] (setting [7]), less than 1000 nM; in test [3], less than 100 nM; in test [4] (setting [8]), less than 100 nM; in test [5] (setting [10]) it was less than 50 nM; in test [6], less than 50 nM. In addition, the “MTAP intact/deleted ratio” value in test [4] (setting [9]) is “A (an IC50 ratio greater than or equal to 10 fold)”.

Turning to `CCc1cc(NC(=O)C(=O)N2C[C@@H](C)CC[C@@H]2c2ccc3sc(CC4(N(C)C)COC4)nc3c2)cnc1N` [Compound 1399, N-(6-amino-5-ethylpyridin-3-yl)-2-((2R,5S)-2-(2-((3-(dimethylamino)oxetan-3-yl)methyl)benzo[d]thiazol-5-yl)-5-methylpiperidin-1-yl)-2-oxoacetamide], the IC50 in test [1] was 50 to 500 nM; in test [2] (setting [7]), less than 1000 nM; in test [3], 100 to 1000 nM; in test [4] (setting [8]), less than 100 nM; in test [5] (setting [10]) it was less than 50 nM; in test [6], less than 50 nM. Besides, in test [4] (setting [9]), the “MTAP intact/deleted ratio” value is “A (an IC50 ratio greater than or equal to 10 fold)”.

In the case of `CC[C@H]1CC[C@H](c2ccccc2)N(C(=O)C(=O)Nc2cncc(C(N)=O)c2)C1` (single isomer, unassigned) [Compound 547], the IC50 in test [1] is 50 to 500 nM; in test [2] (setting [11]), 1000 to 10000 nM; in test [3] it was greater than 1000 nM; in test [4] (setting [8]), less than 100 nM; in test [5] (read-out: No Cofactor/rel IC50), 50 to 500 nM; in test [6] it was less than 50 nM. In addition, the MTAP intact/deleted ratio entry in test [4] (setting [9]) is given as “A (an IC50 ratio greater than or equal to 10 fold)”.

For the molecule `COc1cc(NC(=O)C(=O)N2C[C@@H](C)CC[C@@H]2c2ccc3sc(C4CCN(C)CC4)nc3c2)cnc1N` [Compound 1203, N-(6-amino-5-methoxypyridin-3-yl)-2-((2R,5)-5-methyl-2-(2-(1-methylpiperidin-4-yl)benzo[d]thiazol-5-yl)piperidin-1-yl)-2-oxoacetamide], the IC50 is less than 50 nM in test [1]; less than 1000 nM in test [2] (setting [12]); less than 100 nM in test [3]; less than 100 nM in test [4] (setting [13]); less than 50 nM in test [5] (read-out: No Cofactor/rel IC50); less than 50 nM in test [6]. Also, the MTAP intact/deleted ratio result in test [4] (setting [14]) is listed as “A (an IC50 ratio greater than or equal to 10 fold)”.

In the case of `CCc1cc(NC(=O)C(=O)N2C[C@@H](C)CC[C@@H]2c2ccc3sc(C4CC5(C4)CN(C)C5)nc3c2)cnc1N` [Compound 1283, N-(6-amino-5-ethylpyridin-3-yl)-2-((2R,5S)-5-methyl-2-(2-(2-methyl-2-azaspiro[3.3]heptan-6-yl)benzo[d]thiazol-5-yl)piperidin-1-yl)-2-oxoacetamide], the IC50 was less than 50 nM in test [1]; less than 1000 nM in test [2] (setting [7]); less than 100 nM in test [3]; less than 100 nM in test [4] (setting [8]); less than 50 nM in test [5] (setting [10]); less than 50 nM in test [6]. Besides, the “MTAP intact/deleted ratio” value in test [4] (setting [9]) is “A (an IC50 ratio greater than or equal to 10 fold)”.

Take `Cc1cc(NC(=O)C(=O)N2C[C@@H](C)CC[C@@H]2c2ccc3sc(-c4cn(C)cn4)nc3c2)cnc1N` [Compound 1214, N-(6-amino-5-methylpyridin-3-yl)-2-((2R,5S)-5-methyl-2-(2-(1-methyl-1H-imidazol-4-yl)benzo[d]thiazol-5-yl)piperidin-1-yl)-2-oxoacetamide]: the IC50 in test [1] was 50 to 500 nM; in test [2] (setting [12]), less than 1000 nM; in test [3], 100 to 1000 nM; in test [4] (setting [13]), less than 100 nM; in test [5] (read-out: No Cofactor/rel IC50), less than 50 nM; in test [6], less than 50 nM. For the same molecule, in test [4] (setting [14]), the MTAP intact/deleted ratio result is reported as “A (an IC50 ratio greater than or equal to 10 fold)”.

On to `COc1ncc(NC(=O)C(=O)N2C[C@@H](C)CC[C@@H]2c2ccc3c(c2)OCCN3)cc1C(N)=O` (racemic) [Compound 869, 5-[[2-[(2R,5S)-2-(3,4-dihydro-2H-1,4-benzoxazin-7-yl)-5-methyl-1-piperidyl]-2-oxo-acetyl]amino]-2-methoxy-pyridine-3-carboxamide], for which the IC50 in test [1] is 50 to 500 nM; in test [2] (HAP1, viability assay, HAP1 MTAP-deleted), less than 1000 nM; in test [3], greater than 1000 nM; in test [4] (setting [13]) it was less than 100 nM; in test [5] (read-out: No Cofactor/rel IC50), 50 to 500 nM; in test [6], 50 to 500 nM. Besides, in test [4] (setting [9]), the MTAP intact/deleted ratio result is “A (an IC50 ratio greater than or equal to 10 fold)”.

For `Cc1cc(NC(=O)C(=O)N2C[C@@H](C)CC[C@@H]2[C@H]2CC[C@@H](C(C)(C)C)CC2)cnc1N` (single isomer, unassigned) [Compound 290], the IC50 in test [1] is greater than 500 nM; in test [2] (setting [12]) it was greater than 10000 nM; in test [3], greater than 1000 nM; in test [4] (setting [13]), greater than 1000 nM; in test [5] (read-out: No Cofactor/rel IC50), greater than 500 nM; in test [6], greater than 500 nM. In addition, the MTAP intact/deleted ratio entry in test [4] (setting [9]) is “C (an IC50 ratio of less than 3 fold)”.

`COc1cc([C@@H]2CC[C@@H](C)CN2C(=O)C(=O)Nc2cncc(C(N)=O)c2)ccn1` (single isomer, unassigned) [Compound 532]: the IC50 is 50 to 500 nM in test [1]; less than 1000 nM in test [2] (setting [11]); greater than 1000 nM in test [3]; less than 100 nM in test [4] (setting [8]); less than 50 nM in test [5] (read-out: No Cofactor/rel IC50); less than 50 nM in test [6]. For the same molecule, the MTAP intact/deleted ratio entry in test [4] (setting [9]) is listed as “A (an IC50 ratio greater than or equal to 10 fold)”.

As for `C[C@H]1CCC[C@@H](c2ccccc2)N1C(=O)C(=O)Nc1cncc(C(N)=O)c1` (single isomer, unassigned) [Compound 274], the IC50 in test [1] is 50 to 500 nM; in test [2] (setting [12]), 1000 to 10000 nM; in test [3], greater than 1000 nM; in test [4] (setting [13]), 100 to 1000 nM; in test [5] (read-out: No Cofactor/rel IC50), 50 to 500 nM; in test [6], less than 50 nM. In addition, the MTAP intact/deleted ratio result in test [4] (setting [9]) was “A (an IC50 ratio greater than or equal to 10 fold)”.
